Assay results reported in patent US6340676B2, “4-aryl-1-oxa-9-thia-cyclopenta (b) fluorenes” (American Home Products Corporation, priority 1998, dated 2002).
pIC50: −log10 of the molar value.

Experiments:
Human recombinant PTP1B = molecular target: T1, Human recombinant PTP1B (Homo sapiens, UniProt P18031); type: biochemical
T1 construct: made in house
T1 sequence (P18031 1-435): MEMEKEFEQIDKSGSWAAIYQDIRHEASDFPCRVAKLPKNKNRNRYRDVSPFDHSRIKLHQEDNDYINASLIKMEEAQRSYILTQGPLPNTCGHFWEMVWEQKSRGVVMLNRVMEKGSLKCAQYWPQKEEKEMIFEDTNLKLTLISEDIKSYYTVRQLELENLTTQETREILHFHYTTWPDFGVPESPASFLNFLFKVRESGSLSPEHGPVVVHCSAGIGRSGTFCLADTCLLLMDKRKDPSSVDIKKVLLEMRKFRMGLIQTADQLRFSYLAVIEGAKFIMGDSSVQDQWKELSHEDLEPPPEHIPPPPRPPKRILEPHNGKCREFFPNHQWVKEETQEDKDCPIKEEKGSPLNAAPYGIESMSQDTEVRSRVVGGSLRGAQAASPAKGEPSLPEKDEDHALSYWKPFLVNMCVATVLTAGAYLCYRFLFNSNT

diabetic (ob/ob) mice = test: Blood glucose lowering activity in diabetic (ob/ob) mice; type: in vivo; conditions: for % Change Glucose from Vehicle: plasma glucose
Source text: The procedures used and results obtained are briefly described below.
The non-insulin dependent diabetic (NIDDM) syndrome can be typically characterizes by obesity, hyperglycemia, abnormal insulin secretion, hyperinsulinemia and insulin resistance.
In each test procedure, mice [Male or female ob/ob (C57 B1/6J) and their lean litermates (ob/+ or +/+, Jackson Laboratories) ages 2 to 5 months (10 to 65 g)] of a similar age were randomized according to body weight into 4 groups of 10 mice. The mice were housed 5 per cage and are maintained on normal rodent chow with water ad libitum. Mice received test compound daily by gavage (suspended in 0.5 ml of 0.5% methyl cellulose); dissolved in the drinking water; or admixed in the diet. The dose of compounds given ranges from 2.5 to 200 mg/kg body weight/day. The dose is calculated based on the fed weekly body weight and is expressed as active moiety. The positive control, ciglitazone ([…], see Chang, A., Wyse, B., Gilchrist, B., Peterson, T. and Diani, A. Diabetes 32: 830-838, 1983.) was given at a dose of 100 mg/kg/day, which produces a significant lowering in plasma glucose. Control mice received vehicle only.
On the morning of Day 4, 7 or 14 two drops of blood (approximately 50 ul) were collected into sodium fluoride containing tubes either from the tail vein or after decapitation. For those studies in which the compound was administered daily by gavage the blood samples were collected two hours after compound administration. The plasma was isolated by centrifugation and the concentration of glucose is measured enzymatically on an Abbott V. P. Analyzer.
For each mouse, the percentage change in plasma glucose on Day 4, 7 or 14 is calculated relative to the mean plasma glucose of the vehicle treated mice. Analysis of variance followed by Dunett's Comparison Test (one-tailed) are used to estimate the significant difference between the plasma glucose values from the control group and the individual compound treated groups (CMS SAS Release 5.18).

[1] = system: rat hepatic microsomal PTPases; conditions: PTPase activity; compounds at 50 μM

pIC50 (Human recombinant PTP1B)	% Change from Control [1]	Compound	further results
5.06		Ammonium molybdate tetrahydrate [reference compound]	
7.13	−72.70%	Cc1oc2cc3sc4ccccc4c3c(-c3cc(I)c(O[C@H](Cc4ccccc4)C(=O)O)c(I)c3)c2c1C [Example 9, (R)-2-[4-(2,3-Dimethyl-1-oxa-9-thia-cyclopenta[b]fluoren-4-yl)-2,6-diiodo-phenoxy]-3-phenyl-propionic acid]	% Change Insulin from Vehicle (diabetic (ob/ob) mice; dose 10 mg/Kg): −43.43%; % Change Glucose from Vehicle (diabetic (ob/ob) mice; dose 10 mg/Kg, footnote (a): no significant activity (p < 0.05) at this dose): 8.13%

More lines, now with the values behind:

Compound	pIC50 (Human recombinant PTP1B)	% Change from Control [1]	further results
Cc1oc2cc3sc4ccccc4c3c(-c3ccc(O)cc3)c2c1C [Example 5, 4-(2,3-Dimethyl-1-oxa-9-thia-cyclopenta[b]fluoren-4-yl)-phenol]			melting point: 174 to 175 °C
Cc1oc2cc3sc4ccccc4c3c(-c3cc(I)c(O[C@H](C)C(=O)O)c(I)c3)c2c1C [Example 8, (R)-2-[4-(2,3-Dimethyl-1-oxa-9-thia-cyclopenta[b]fluoren-4-yl)-2,6-diiodo-phenoxy]-propionic acid]	6.55	−58.84%	
CC1(COc2ccc(CC3SC(=O)NC3=O)cc2)CCCCC1 (stereo not shown) [Ciglitazone, 5-(4-(1-methylcyclohexylmethoxy)benzyl)-2,4-dione, reference compound]			% Change Insulin from Vehicle (diabetic (ob/ob) mice; dose 100 mg/Kg): −39%; % Change Glucose from Vehicle (diabetic (ob/ob) mice; dose 100 mg/Kg): −43%
